Earlier results, collected in patent publication US7276608B2, “Tetrahydroquinoline derivatives as cannabinoid receptor modulators” (Bristol-Myers Squibb Company, priority 2003, dated 2007).

Key:
[1] = 16 week trial period, Phase IIb
[2] = chronic administration for two weeks

| SMILES | body weight in human subjects [1] | body weight [2] |
| --- | --- | --- |
| Cc1c(C(=O)NN2CCCCC2)nn(-c2ccc(Cl)cc2Cl)c1-c1ccc(Cl)cc1 [SR-141716] | dose-dependently reduced body weight | – |
| Cc1c(C(=O)NN2CCCCC2)nn(-c2ccc(Cl)cc2Cl)c1-c1ccc(I)cc1 [AM-251] | – | substantial body weight reduction |
